Like-named read-outs stand apart in the source and are kept apart here.
Columns and labels:
786-O = assay: Cytotoxicity in vitro in the presence and absence of elastase (MTT assay); type: cell-based; conditions: 786-O cells, 72 h incubation
Procedure: (§1) Cultivation of cells was performed according to standard procedures with the media recommended by the provider. The cells, in a total volume of 100 μL, were seeded in a 96-well plate with a white bottom (#3610). After a 24 h incubation period at 37° C. and 5% CO2, the medium was exchanged by adding 90 μL fresh medium. The treatment started by adding the test compound in 10 μL of culture medium to the cells in triplicates. Concentrations ranging from 10^−5 M to 10^−13 M were chosen. Two identically treated sets of samples were prepared. One set was treated with the test compound alone, whereas to the second set the compound and 10 nM elastase (NE) was added followed by a 72 h incubation period at 37° C. and 5% CO2. The proliferation was detected using the MTT assay (ATCC). At the end of the incubation period the MTT reagent was added to all samples for 4h. Lysis of the cells followed by addition of the detergent was done overnight. The formed dye was detected at 570 nm. The proliferation of untreated but otherwise identically handled cells was defined as the 100% value. The dose response curves allowed the determination of the respective IC50 values. […]

HT29 = assay: as above; type: cell-based; conditions: HT29 cells, 72 h incubation
Procedure: as §1

NCI-H292 = assay: as above; type: cell-based; conditions: NCI-H292 cells, 72 h incubation
Procedure: as §1

SUM149PT = assay: as above; type: cell-based; conditions: SUM149PT cells, 72 h incubation
Procedure: as §1

[1] = Pharmacokinetics in rat after intravenous administration; type: in vivo; conditions: plasma, male rats, intravenous bolus 0.5 mg/kg; for clearance: read-out: CL plasma; for Vd: read-out: VSS
Procedure: Male rats (n=3) were given an intravenous 0.5 mg/kg bolus dose of test article dissolved in plasma with 1% DMSO and 2% ethanol. Serial blood samples were collected up to 24 hours post-dose. Plasma was harvested from blood samples and stored frozen until sample analysis. Test article plasma concentrations were analyzed by LC/MS/MS. Pharmacokinetic parameters were calculated using non-compartmental analysis.

[2] = compound alone, read-out: IC50 without neutrophil elastase
[3] = with 10 nM elastase (NE), read-out: IC50 with neutrophil elastase

| Compound | IC50 (786-O; [2]) [nM] | IC50 (786-O; [3]) [nM] | IC50 (HT29; [2]) [nM] | IC50 (HT29; [3]) [nM] | IC50 (NCI-H292; [2]) [nM] | IC50 (NCI-H292; [3]) [nM] | IC50 (SUM149PT; [2]) [nM] | IC50 (SUM149PT; [3]) [nM] | AUC [1] [ng·h/mL] | half-life [1] [h] | clearance [1] [mL/min/kg] | Vd [1] [L/kg] |
| --- | --- | --- | --- | --- | --- | --- | --- | --- | --- | --- | --- | --- |
| CC(C)[C@H](NC(=O)[C@@H]1CCCN1C(=O)[C@H](CC(=O)O)NC(=O)CCOCCOCCOCCNC(=O)NCCCC[C@H](NC(=O)N[C@@H](CCC(=O)O)C(=O)O)C(=O)O)C(=O)N=S(C)(=O)Cc1cc2nc(c1)OCCCOc1cc(F)ccc1-c1cc(ncc1F)N2 (relative stereo) [Compound 9, tetrasodium 1-[(2S,23S,27S)-23,27,29-tricarboxylato-2-(carboxylatomethyl)-4,17,25-trioxo-7,10,13-trioxa-3,16,18,24,26-pentaazanonacosanan-1-oyl]-L-prolyl-N—[(R*)—{[15,19-difluoro-3,4-dihydro-2H,11H-10,6-(azeno)-12,16-(metheno)-1,5,11,13-benzodioxadiazacyclooctadecin-8-yl]methyl}(methyl)oxo-lambda6-sulfanylidene]-L-valinamide] | 100 to 999 | 1 to 9.9 | 100 to 999 | 1 to 9.9 | 100 to 999 | 1 to 9.9 | 100 to 999 | 1 to 9.9 |  |  |  |  |
| CCc1c2c(nc3ccccc13)-c1cc3c(c(=O)n1C2)COC(=O)[C@@]3(CC)OC(=O)[C@@H](NC(=O)[C@@H]1CCCN1C(=O)[C@H](CC(=O)O)NC(=O)CCOCCOCCOCCNC(=O)NCCCC[C@H](NC(=O)N[C@@H](CCC(=O)O)C(=O)O)C(=O)O)C(C)C [Compound 5, tetrasodium (4S)-4,11-diethyl-3,14-dioxo-3,4,12,14-tetrahydro-1H-pyrano[3′,4′:6,7]indolizino[1,2-b]quinolin-4-yl 1-[(2S,23S,27S)-23,27,29-tricarboxylato-2-(carboxylatomethyl)-4,17,25-trioxo-7,10,13-trioxa-3,16,18,24,26-pentaazanonacosanan-1-oyl]-L-prolyl-L-valinate] |  |  |  |  |  |  |  |  | 1000 to 10000 | 1 to 5 | 0.5 to 5 | 0.1 to 0.3 |
| CCc1c2c(nc3ccccc13)-c1cc3c(c(=O)n1C2)COC(=O)[C@@]3(CC)OC(=O)[C@@H](NC(=O)[C@@H]1CCCN1C(=O)[C@H](CC(=O)O)NC(=O)CCOCCOCCOCCNC(=O)CCC(=O)Nc1cccc2c(C(=O)NCC(=O)N3CC(F)(F)C[C@H]3C#N)ccnc12)C(C)C [Compound 6, sodium (4S)-4,11-diethyl-3,14-dioxo-3,4,12,14-tetrahydro-1H-pyrano[3′,4′:6,7]indolizino[1,2-b]quinolin-4-yl 1-[(2S)-2-(carboxylatomethyl)-20-{[4-({2-[(2S)-2-cyano-4,4-difluoropyrrolidin-1-yl]-2-oxoethyl}carbamoyl)quinolin-8-yl]amino}-4,17,20-trioxo-7,10,13-trioxa-3,16-diazaicosanan-1-oyl]-L-prolyl-L-valinate] |  |  |  |  |  |  |  |  | < 1000 | < 0.5 | > 5 | 0.3 to 0.9 |
| CCCNC(=O)Nc1cccc(S(=O)(=O)Nc2cccc([C@@H](CC(=O)O)NC(=O)Nc3ccc(NC(=O)NCCOCCOCCOCCC(=O)NCCCC[C@H](NC(=O)CCOCCOCCOCCNC(=O)Nc4ccc(NC(=O)N[C@H](CC(=O)O)c5cccc(NS(=O)(=O)c6cccc(NC(=O)NCCC)c6)c5)cc4)C(=O)NCCOCCOCCOCCC(=O)N[C@@H](CC(N)=O)C(=O)N4CCC[C@H]4C(=O)N[C@H](C(=O)NCCCN(C(=O)CO)[C@@H](c4cc(-c5cc(F)ccc5F)cn4Cc4ccccc4)C(C)(C)C)C(C)C)cc3)c2)c1 [Compound 18] |  |  |  |  |  |  |  |  | 100000 to 500000 | 10 to 40 | 0.02 to 0.5 | 0.01 to 0.1 |
| CCc1c2c(nc3ccccc13)-c1cc3c(c(=O)n1C2)COC(=O)[C@@]3(CC)OC(=O)[C@@H](NC(=O)[C@@H]1CCCN1C(=O)[C@H](CC(=O)[O-])NC(=O)CCOCCOCCOCCNC(=O)[C@H](CCCCNC(=O)CCOCCOCCOCCNC(=O)CCC(=O)Nc1cccc2c(C(=O)NCC(=O)N3CC(F)(F)C[C@H]3C#N)ccnc12)NC(=O)CCOCCOCCOCCNC(=O)CCC(=O)Nc1cccc2c(C(=O)NCC(=O)N3CC(F)(F)C[C@H]3C#N)ccnc12)C(C)C.[Na+] [Compound 20, sodium (4S)-4,11-diethyl-3,14-dioxo-3,4,12,14-tetrahydro-1H-pyrano[3′,4′:6,7]indolizino[1,2-b]quinolin-4-yl 1-[(2S)-15-{[N2,N6-bis(17-{[4-({2-[(2S)-2-cyano-4,4-difluoropyrrolidin-1-yl]-2-oxoethyl}carbamoyl)quinolin-8-yl]amino}-14,17-dioxo-4,7,10-trioxa-13-azaheptadecanan-1-oyl}-L-lysyl]amino)-2-(carboxylatomethyl)-4-oxo-7,10,13-trioxa-3-azapentadecanan-1-oyl]-L-prolyl-L-valinate] | > 1000 | 1 to 9.9 | > 1000 | 10 to 99 | 100 to 999 | 1 to 9.9 |  |  | 1000 to 10000 | 0.5 to 1 | 0.5 to 5 | 0.1 to 0.3 |
| CCc1c2c(nc3ccccc13)-c1cc3c(c(=O)n1C2)COC(=O)[C@@]3(CC)OC(=O)[C@@H](NC(=O)[C@@H]1CCCN1C(=O)[C@H](CC(=O)[O-])NC(=O)CCOCCOCCOCCNC(=O)CCCC(=O)NCCCC[C@H](NC(=O)CCOCCOCCOCCNC(=O)CCC(=O)Nc1cccc2c(C(=O)NCC(=O)N3CC(F)(F)C[C@H]3C#N)ccnc12)C(=O)NCCCCCCCC(=O)[O-])C(C)C.[Na+].[Na+] [Compound 21, disodium (4S)-4,11-diethyl-3,14-dioxo-3,4,12,14-tetrahydro-1H-pyrano[3′,4′:6,7]indolizino[1,2-b]quinolin-4-yl 1-[(2S,27S)-27-[(7-carboxylatoheptyl)carbamoyl]-2-(carboxylatomethyl)-45-{[4-({2-[(2S)-2-cyano-4,4-difluoropyrrolidin-1-yl]-2-oxoethyl}carbamoyl)quinolin-8-yl]amino}-4,17,21,29,42,45-hexaoxo-7,10,13,32,35,38-hexaoxa-3,16,22,28,41-pentaazapentatetracontanan-1-oyl]-L-prolyl-L-valinate] | > 1000 | 1 to 9.9 | > 1000 | 10 to 99 | 100 to 999 | 1 to 9.9 |  |  | 1000 to 10000 | 0.5 to 1 | 0.5 to 5 | 0.1 to 0.3 |
| CCCNC(=O)Nc1cccc(S(=O)(=O)Nc2cccc([C@@H](CC(=O)O)NC(=O)Nc3ccc(NC(=O)NCCOCCOCCOCCC(=O)N[C@@H](CC(=O)O)C(=O)N4CCC[C@H]4C(=O)N[C@H](C(=O)NCCCN(C(=O)CO)[C@@H](c4cc(-c5cc(F)ccc5F)cn4Cc4ccccc4)C(C)(C)C)C(C)C)cc3)c2)c1 [Compound 25, disodium 1-[(2S)-2-(carboxylatomethyl)-17-{4-[({(1R)-2-carboxylato-1-[3-({3-[(propylcarbamoyl)amino]benzene-1-sulfonyl}amino)phenyl]ethyl}carbamoyl)amino]anilino}-4,17-dioxo-7,10,13-trioxa-3,16-diazaheptadecanan-1-oyl]-L-prolyl-N-{3-[({1R)-1-[1-benzyl-4-(2,5-difluorophenyl)-1H-pyrrol-2-yl]-2,2-dimethylpropyl}(hydroxyacetyl)amino]propyl}-L-valinamide] |  |  | > 1000 | 1 to 9.9 | > 1000 | 10 to 99 | > 1000 | 1 to 9.9 |  |  |  |  |
| CCCNC(=O)Nc1cccc(S(=O)(=O)Nc2cccc([C@@H](CC(=O)O)NC(=O)Nc3ccc(NC(=O)NCCOCCOCCOCCC(=O)NCCCC[C@H](NC(=O)CCOCCOCCOCCNC(=O)Nc4ccc(NC(=O)N[C@H](CC(=O)O)c5cccc(NS(=O)(=O)c6cccc(NC(=O)NCCC)c6)c5)cc4)C(=O)NCCOCCOCCOCCC(=O)N[C@@H](CC(=O)O)C(=O)N4CCC[C@H]4C(=O)N[C@H](C(=O)N[C@@H](CCN(C(=O)CO)[C@@H](c4cc(-c5cc(F)ccc5F)cn4Cc4ccccc4)C(C)(C)C)C(=O)NC)C(C)C)cc3)c2)c1 [Compound 27] |  |  |  |  |  |  |  |  | 100000 to 500000 | 10 to 40 | 0.02 to 0.5 | 0.01 to 0.1 |
